Test results taken from PubChem BioAssay AID200 (DTP/NCI, 2004).
Several values for one entry are separate records, joined by “and”; a condition that tells them apart may be missing. Identical values can stand only once. Toxic doses and inconclusive results are not listed. The calls were made as follows: active = survival T/C of 150% or more; inactive = T/C below 125% in these data. Where a SMILES comes first, the peptide text is derived from it. The star is where a group is joined. Cbz = O=C(OCc1ccccc1)*

System: B6C3F1 mice, B16 melanoma ip, median survival T/C
Test: NCI In Vivo Anticancer Drug Screen. Data for tumor model B16 Melanoma (intraperitoneal) in B6C3F1 mice
Details: endpoint: median survival time, schedule: Q01DX009 (ip), higher = longer survival
Summary of the method: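 Antitumor effect was judged in mice with transplanted tumors by dividing the treated group's survival measure by that of vehicle controls.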

[1] = dose: 25.0 mg/kg/injection, vehicle: Klucel (hydroxypropylcellulose) (HPC)
[2] = dose: 50.0 mg/kg/injection, vehicle: Klucel (hydroxypropylcellulose) (HPC)
[3] = dose: 100.0 mg/kg/injection, vehicle: Klucel (hydroxypropylcellulose) (HPC)
[4] = dose: 200.0 mg/kg/injection, vehicle: Klucel (hydroxypropylcellulose) (HPC)
[5] = dose: 25.0 mg/kg/injection, vehicle: distilled water + Tween-80
[6] = dose: 200.0 mg/kg/injection, vehicle: distilled water + Tween-80
[7] = dose: 25.0 mg/kg/injection, vehicle: saline with Tween-80
[8] = dose: 50.0 mg/kg/injection, vehicle: saline with Tween-80
[9] = dose: 100.0 mg/kg/injection, vehicle: saline with Tween-80
[10] = dose: 200.0 mg/kg/injection, vehicle: saline with Tween-80
[11] = dose: 400.0 mg/kg/injection, vehicle: saline with Tween-80
[12] = dose: 12.5 mg/kg/injection, vehicle: saline with Tween-80
[13] = dose: 8.0 mg/kg/injection, vehicle: saline with Tween-80
[14] = dose: 16.0 mg/kg/injection, vehicle: saline with Tween-80
[15] = dose: 3.12 mg/kg/injection, vehicle: saline with Tween-80
[16] = dose: 6.25 mg/kg/injection, vehicle: saline with Tween-80

Measured: T/C

Oc1c(Cl)cc(Cl)cc1C1N2CCCCC2C2c3cccn3-c3ccccc3N21 (stereo not given)
inactive: dose: 12.5 mg/kg/injection, vehicle: Klucel (hydroxypropylcellulose) (HPC) 101 % of control | [1] 98 % of control | [2] 104 % of control | [3] 98 % of control | [4] 87 % of control

Nc1ncnc2c1c1c(=O)[nH]c(=O)[nH]c1n2C1OC(CO)C(O)C1O (stereo not given)
inactive: [5] 123 % of control
active: [6] 172 % of control

[Cl][Pt][Cl].[NH-]C(CO)C(=O)O (stereo not given)
inactive: dose: 3.13 mg/kg/injection, vehicle: water 98 % of control | dose: 6.25 mg/kg/injection, vehicle: water 106 % of control | dose: 12.5 mg/kg/injection, vehicle: water 116 % of control and 107 % of control | dose: 25.0 mg/kg/injection, vehicle: water 120 % of control | dose: 50.0 mg/kg/injection, vehicle: water 114 % of control

C[n+]1c(-c2cccc(OCCCCCCCOc3cccc(-c4c5cc(N)ccc5c5ccc(N)cc5[n+]4C)c3)c2)c2cc(N)ccc2c2ccc(N)cc21
inactive: dose: 0.02 mg/kg/injection, vehicle: water 98 % of control | dose: 0.04 mg/kg/injection, vehicle: water 109 % of control

COc1ccc(C(C)c2cc3c(cc2OC)OCO3)cc1 (stereo not given)
inactive: [7] 99 % of control | [8] 99 % of control | [9] 100 % of control | [10] 104 % of control

O=C(Oc1cc(Cl)ccc1Cl)c1ccccc1
inactive: [8] 96 % of control | [9] 97 % of control | [10] 91 % of control | [11] 87 % of control

ClC(Cl)(Cl)C1=NCc2nnn(Cc3ccccc3)c2N1
inactive: dose: 12.5 mg/kg/injection, vehicle: distilled water + Tween-80 101 % of control | [12] 105 % of control | [5] 96 % of control | [7] 110 % of control | dose: 50.0 mg/kg/injection, vehicle: distilled water + Tween-80 93 % of control | [8] 108 % of control | dose: 100.0 mg/kg/injection, vehicle: distilled water + Tween-80 91 % of control | [9] 105 % of control | [6] 101 % of control | [10] 95 % of control | dose: 400.0 mg/kg/injection, vehicle: distilled water + Tween-80 101 % of control | [11] 95 % of control

O=C(NC(CSSCC(NC(=O)c1ccccc1)C(=O)O)C(=O)O)c1ccccc1 (stereo not given)
inactive: [8] 109 % of control | [9] 108 % of control | [10] 106 % of control | [11] 100 % of control

CC(=O)Nc1cc2oc3ccccc3c2cc1[N+](=O)[O-]
inactive: [9] 88 % of control | [11] 91 % of control

N#CCS(=O)(=O)c1cccc[n+]1[O-]
inactive: [7] 102 % of control | [8] 101 % of control | [9] 117 % of control | [10] 121 % of control

CC(NC(=O)OCc1ccccc1)C(=O)NC(CC(N)=O)C(=O)O (stereo not drawn) (Cbz-Ala-Asn-OH; configuration not given here)
inactive: dose: 12.0 mg/kg/injection, vehicle: Klucel (hydroxypropylcellulose) (HPC) 101 % of control | [1] 101 % of control | [2] 98 % of control | [3] 107 % of control | dose: 400.0 mg/kg/injection, vehicle: Klucel (hydroxypropylcellulose) (HPC) 104 % of control

Cc1cc(NCCCN(C)C)c2ccc3c(ccc4c(NCCCN(C)C)cc(C)nc43)c2n1
inactive: dose: 0.19 mg/kg/injection, vehicle: saline 114 % of control | dose: 0.39 mg/kg/injection, vehicle: saline 102 % of control | dose: 0.78 mg/kg/injection, vehicle: saline 91 % of control | dose: 1.56 mg/kg/injection, vehicle: saline 106 % of control | dose: 3.12 mg/kg/injection, vehicle: saline 113 % of control and 102 % of control

CC[C@]1(O)C[C@H]2CN(CCc3c([nH]c4ccccc34)[C@@](C(=O)OC)(c3cc4c(cc3OC)N(C)[C@H]3[C@@](O)(C(=O)OC)[C@H](OC(C)=O)[C@]5(CC)C=CCN6CC[C@]43[C@@H]65)C2)C1
active: dose: 0.12 mg/kg/injection, vehicle: saline 194 % of control | dose: 0.12 mg/kg/injection, vehicle: water 161 % of control | dose: 0.25 mg/kg/injection, vehicle: saline 234 % of control | dose: 0.25 mg/kg/injection, vehicle: water 171 % of control and 199 % of control and 221 % of control | dose: 0.5 mg/kg/injection, vehicle: saline 215 % of control | dose: 0.5 mg/kg/injection, vehicle: water 176 % of control and 212 % of control and 309 % of control | dose: 15.62 micrograms/kg/injection, vehicle: water 159 % of control | dose: 31.25 micrograms/kg/injection, vehicle: water 154 % of control | dose: 62.5 micrograms/kg/injection, vehicle: water 180 % of control | dose: 125.0 micrograms/kg/injection, vehicle: water 206 % of control | dose: 250.0 micrograms/kg/injection, vehicle: water 206 % of control

O=S(=O)(N=N/C=C1\C=CC=CN1O)c1cccs1
inactive: [12] 101 % of control | [7] 104 % of control | [8] 114 % of control

CCOC(=O)C(CC(C)C)NC(=O)C(Cc1ccc(N(CCCl)CCCl)cc1)NC(C)=O (stereo not given)
inactive: [13] 105 % of control | [14] 102 % of control
active: dose: 64.0 mg/kg/injection, vehicle: saline with Tween-80 160 % of control

Cc1nc(C(Cl)(Cl)Cl)[nH]c(=O)c1SCCO
inactive: dose: 25.0 mg/kg/injection, vehicle: distilled water + alcohol 111 % of control | dose: 50.0 mg/kg/injection, vehicle: distilled water + alcohol 107 % of control | dose: 100.0 mg/kg/injection, vehicle: distilled water + alcohol 102 % of control | dose: 200.0 mg/kg/injection, vehicle: distilled water + alcohol 106 % of control | dose: 400.0 mg/kg/injection, vehicle: distilled water + alcohol 119 % of control

CC(=O)Nc1ccc(Nc2ccc(C(=C3C=CC(=[N+](C)CCC#N)C=C3)c3ccc(N(C)CCC#N)cc3)cc2)cc1
inactive: dose: 0.78 mg/kg/injection, vehicle: saline with Tween-80 105 % of control | dose: 1.56 mg/kg/injection, vehicle: saline with Tween-80 108 % of control | [15] 105 % of control | [16] 107 % of control | [12] 120 % of control | [7] 106 % of control

Sc1ccccc1-n1c(-c2ccccc2)ccc1-c1ccccc1
inactive: [8] 104 % of control | [9] 87 % of control

C=C1[C@@H](O)[C@]2(O)OC[C@@]34[C@H]1[C@@H](OC(=O)C(C)CC)C(=O)O[C@@H]3C[C@H]1C(C)=CC(=O)[C@@H](O)[C@]1(C)[C@@H]24 (stereo not given in full)
active: dose: 1.0 mg/kg/injection, vehicle: saline with Tween-80 175 % of control | dose: 2.0 mg/kg/injection, vehicle: saline with Tween-80 165 % of control | dose: 4.0 mg/kg/injection, vehicle: saline with Tween-80 175 % of control | [13] 165 % of control | [14] 180 % of control

COC(=O)C(Cc1ccc(O)cc1)NC(=O)C(Cc1ccccc1)NC(C)=O (stereo not drawn) (Ac-Phe-Tyr-OMe; configuration not given here)
inactive: [1] 92 % of control | [2] 92 % of control | [3] 92 % of control | [4] 86 % of control

N#Cc1nc(C#N)c(Sc2ccccc2)c(Sc2ccccc2)c1Sc1ccccc1
inactive: [15] 104 % of control | dose: 3.13 mg/kg/injection, vehicle: saline with Tween-80 101 % of control | [16] 98 % of control and 102 % of control | [12] 93 % of control and 94 % of control | [7] 101 % of control | [8] 97 % of control and 98 % of control | [9] 101 % of control and 104 % of control
